For 16 compounds, TGI and GI50 results are on record in PubChem BioAssay (NCI).

Structures are written as SMILES. Several values for one entry are separate records, joined by “and”; a condition that tells them apart may be missing. Identical values can stand only once.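 Briefly, cells in 96-well plates were exposed to five compound concentrations for 48 h, and endpoints were estimated by linear interpolation. GI50 is the concentration that inhibits growth by half. TGI denotes the concentration required for complete inhibition of growth.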

Holding throughout (assay): DTP human tumour cell line panel, 48 h
Assay [1] concerns MDA-MB-231 breast.
Assay [2] relates to NCI-H226 lung.
In assay [3] the test system is SF-539 CNS.
Assay [4] relates to TK-10 renal.
Assay [5] has as its system SR leukemia.
The test system of assay [6] is 786-0 renal.
Assay [7] concerns HOP-18 NSCLC.
Assay [8] deals with HOP-92 NSCLC.
Assay [9] concerns M19-MEL melanoma.
Assay [10] concerns SNB-78 CNS.
For assay [11], the system named is MDA-N.
Assay [12] concerns BT-549 breast.

`O=C1c2ccccc2-c2ccc(O)cc21`: the total growth inhibition concentration (TGI) in assay [1] is 44.2 µM; in assay [2], greater than 100 µM; in assay [3], 52.8 µM; in [4] it was 49.5 µM; in assay [5], 29.7 µM; in assay [6] it was greater than 100 µM.
On to `S=C(NCCCCCCNC(=S)Nc1c2ccccc2nc2ccccc12)Nc1c2ccccc2nc2ccccc12`, for which the TGI in [7] was greater than 100 µM; in [8], greater than 100 µM; in assay [2] it was greater than 30.1 µM; in assay [9] it was greater than 100 µM; in assay [3], 99.9 µM; in assay [10], greater than 100 µM.
`COc1nc(C#CCCCC#N)nc(OC)n1`: the TGI is 29.3 µM in assay [1]; 56.1 µM in assay [11]; 33.1 µM in [12]; 53.7 µM in assay [3]; 37.7 µM in assay [4]; greater than 100 µM in [5]. In [6], the total growth inhibition concentration (TGI) worked out at 41.7 µM.
For the compound `COc1ccc(OC)c2sc(N3C(=O)/C(=C/c4ccccc4S)N=C3c3ccccc3)nc12`, the TGI in assay [8] was greater than 100 µM; in assay [1], greater than 100 µM; in [11], 49.5 µM; in [12] it was greater than 100 µM; in assay [3] it was 85.4 µM; in assay [4], greater than 100 µM. Besides, the TGI was 35.2 µM in assay [5] and greater than 100 µM in assay [6].
In the case of `CCC(C)C(NC(=O)C(CCCCN)NC(=O)C(NC(=O)C(CCC(N)=O)NC(=O)C(CCCNC(=N)N)NC(C)=O)C(C)CC)C(=O)NC(Cc1c[nH]c2ccccc12)C(=O)NC(Cc1ccccc1)C(=O)NC(CCC(N)=O)C(=O)NC(CC(N)=O)C(=O)NC(CCCNC(=N)N)C(=O)NC(CCCNC(=N)N)C(=O)NC(CCSC)C(=O)NC(CCCCN)C(=O)NC(Cc1c[nH]c2ccccc12)C(=O)NC(CCCCN)C(=O)NC(CCCCN)C(N)=O` (stereo not given), the TGI in assay [8] was greater than 50 µM; in [1], 41.3 µM; in [11], greater than 50 µM; in assay [12], greater than 50 µM; in assay [3], greater than 50 µM; in assay [4] it was greater than 50 µM. Besides, the TGI in assay [5] was greater than 50 µM; in assay [6], 42.1 µM.
Turning to `COC1(OC)C[C@H](C)[C@@]23O[C@]24c2cc(O)c5c(c2N[C@H]3C#C/C=C\C#C[C@]14O)C(=O)c1ccccc1C5=O`, the TGI in [8] was 0.00982 µM; in assay [2] it was 0.00755 µM; in assay [11], 0.139 µM and 0.108 µM; in assay [12], 0.125 µM; in assay [3], 0.00304 µM; in [4], 0.401 µM. Besides, in assay [6], the TGI came out at 0.0245 µM. Further, the results for the GI50 in assay [1], in [11] and in assay [3] were 0.0199 µM, 0.00836 µM and less than 0.001 µM, respectively.
Take `CC(=O)OCCC[C@@H]1C(=C(C)C)CCC2[C@@]1(C)CC[C@@]1(C)C[C@](C)(CCC=C(C)C)CC[C@]21C` (stereo not given in full): the TGI in [1] is greater than 100 µM; in [2], greater than 100 µM; in assay [11], greater than 100 µM; in [12], greater than 100 µM; in assay [3], greater than 100 µM; in assay [4], 0.0632 µM. Also, in [6], the TGI was greater than 100 µM.
On to `CN(C)CCNc1c([N+](=O)[O-])cc2c3c(cccc13)C(=O)N(CCN(C)C)C2=O`, for which the TGI in [7] is 4.6 µM; in assay [8] it was 2.36 µM; in assay [2], greater than 100 µM; in assay [9] it was 3.28 µM; in assay [3], 8.29 µM; in assay [10], 7.21 µM.
In the case of `Cc1c2c(cc3c1[nH]c1ccccc13)C(c1ccc(F)cc1)=NCC2`, the concentration for total growth inhibition (TGI) in assay [7] turned out to be 14.5 µM; in [8], 7.27 µM; in assay [2], 4.64 µM; in assay [9] it was 5.44 µM; in assay [3], 2.77 µM; in assay [10], 9.03 µM.
As for `O=C(NN1C(=O)/C(=C/c2ccc(Cl)cc2)N=C1c1ccccc1)c1c(Cl)c(Cl)c(Cl)c(Cl)c1-c1nc2ccccc2[nH]1`, the TGI is 37.3 µM in assay [8]; 68.2 µM in [2]; 31.5 µM in [11]; 32.8 µM in assay [12]; greater than 100 µM in assay [3]; 27.1 µM in assay [5]. In addition, in assay [6], the total growth inhibition concentration (TGI) was 55.9 µM.
Take `O=C1OC(c2ccccc2)=N/C1=C/c1cccs1`: the TGI in [8], in assay [2], in assay [3], in [4] and in [5] was greater than 100 µM each time.
As for `CC(=O)C1=C(O)C2(O)C(=O)c3c(c(C)c4ccc(C)c(O)c4c3O)CC2C(N)C1=O` (stereo not given), the TGI in [7] was determined as 13.4 µM; in [8], 6.2 µM; in assay [1], 4.99 µM; in assay [2] it was 8.2 µM; in [12], 13.6 µM; in [9], 11 µM. The TGI in assay [3] was found to be 14.8 µM; in assay [4] it was 8.86 µM; in assay [5] it was 4.47 µM; in [6], 16.8 µM. Further, the results for the GI50 in [1] and in assay [12] were 0.73 µM and 0.762 µM, respectively.
Take `CN1CCN(CCCOc2ccc3ncnc(Nc4ccc(Oc5cccc(C(F)(F)F)c5)c(Cl)c4)c3c2)CC1`: the GI50 in [8] is 1.33 µM; in [1] it was 1.72 µM; in [2] it was 21 µM; in assay [3], 1.6 µM; in assay [4], 1.5 µM. Further, the concentration for total growth inhibition (TGI) was found to be 3.9 µM in assay [8]; 3.15 µM in [1]; 52 µM in [2]; 3 µM in assay [3]; 3.09 µM in [4].
Take `N#CCc1[nH]nc2nc(SCc3ccccc3)nc(N3CCCCC3)c12`: the concentration for total growth inhibition (TGI) in assay [8] turned out to be 31.6 µM; in [12], 34.1 µM; in assay [3], 37.8 µM; in assay [4], 40.5 µM; in [6] it was 31.8 µM.
For `COc1ccc(/C=c2/[nH]c(=O)/c(=C\c3ccc(OCc4ccccc4)cn3)[nH]c2=O)cc1`, the TGI in assay [8] was 80 µM; in assay [1] it was greater than 100 µM; in assay [2] it was greater than 100 µM; in assay [11] it was greater than 100 µM; in assay [12], greater than 100 µM; in assay [3], greater than 100 µM. The concentration for total growth inhibition (TGI) in assay [4], in assay [5] and in [6] was greater than 100 µM in each case.
On to `Cc1c(Cl)c(=O)oc2cc(OCC(=O)c3ccccc3)ccc12`, for which the TGI in [8] is greater than 100 µM; in [1] it was 75.4 µM; in assay [2], greater than 100 µM; in assay [11], greater than 100 µM; in assay [12] it was greater than 100 µM; in assay [3], greater than 100 µM. Further, the TGI is greater than 100 µM in [4] and 10.7 µM in assay [5].

In general, TGI refers to the concentration giving total growth inhibition. Lower therefore signals more potent growth arrest. In general, GI50 refers to the concentration at which growth is held to half of that of the control.
